The source of these data is patent US20180256538A1, “METHOD FOR IMPROVING MITOPHAGY IN SUBJECTS” (Amazentis SA, priority 2017, published 2018).

Data set [1] can be described thus: Steady state plasma levels of total Urolithin A (parent + glucuronide and sulfate) over 28 days of dosing. It is filed as in vivo, human. To be noted: 500 mg/day oral for 28 days, total Urolithin A in plasma. The method, then:
A double-blind, randomized, placebo controlled clinical trial was conducted in healthy elderly to establish the steady state levels of Urolithin A in plasma. Elderly subjects (61-82 years) (n=9), participated in each group of dosing. The subjects met all the inclusion and exclusion criteria of the study and signed informed consent. The subjects were overnight fasted and the plasma was collected in the morning before breakfast to assess steady state levels. Subjects were given a dose of Urolithin or placebo each morning for the 28 day trial, The urolithin A was given as softgel capsules containing 250 mg of Urolithin A in each capsule. Plasma samples were collected for assessment of Urolithin A steady state concentrations in the 4-week Urolithin A study at the following time points (Day 0, Day 7, Day 14, Day 28, Day 29, Day 31, and Day 32) were measured On day 28 the subjects were admitted to a Phase I clinical trial unit and the kinetics of Urolithin A absorption, and elimination following multiple 4-week dosing were followed until 96 hours following the last dosing on Day 28. Plasma was collected at the following time-points post last dosing with Urolithin A on Day 28: pre-dose, 1 hr, 2 hr, 4 hr, 6 hr, 8 hr, 12 hr, 24 hr, 72 hr and 96 hr. […] The exact time of sample collection was recorded on the eCRF (electronic case report from). […]

Data set [2] in a line: clinical. Conditions: human, in vivo, po. On the procedure: Part B: The study was a double-blinded, randomized, multiple ascending dose study in 36 healthy elderly male and female volunteers. Each subject was randomised to receive study product or placebo for 28 days.
Part B: Repeated oral dose administration from day 1 to day 28 according to the randomization. The administration took place around 8:00 am with around 200 mL tap water, in a sitting position, and under fasting conditions.
After multiple dosing: Cmax, tmax, AUC0-24 h, t1/2 From the plasma concentration-time data, the following pharmacokinetic parameters will be determined, as data permit using non-compartmental methods: maximum observed plasma concentration (Cmax(ng/mL), time at which maximum observed plasma concentration (tmax) (h), area under the plasma concentration-time curve AUC(0-24 h) (ng/mL*h) and AUC0-∞) (ng/mL*h), and apparent terminal phase half-life (t1/2) (h).
(§1) Blood sampling was performed for urolithin A concentration measurements at the exact timepoints with an authorised time window described in the table below:
(§2) At each time point indicated in the table, a 6 mL blood sample was drawn into K2-EDTA coated tube. The blood samples were gently inverted a few times for complete mixing with the anticoagulant. The exact time of sample collection was recorded on the eCRF. Within 30 minutes following blood collection, each blood sample was centrifuged at 1500 g for 10 minutes at 4° C.
(§3) From the plasma concentration-time data, the following pharmacokinetic parameters were determined, as data permit using non-compartmental methods: maximum observed plasma concentration (Cmax), time at which maximum observed plasma concentration (tmax), area under the plasma concentration-time curve AUC(0-24 h) and AUC(0-∞), and apparent terminal phase half-life (t1/2).

Data set [3] relates to plasma acylcarnitines and other metabolites. The data set is described as follows: Plasma metabolomics (LC/MS/MS), day 28 vs day -1. It is filed as in vivo, human. Conditions: 500 mg/day for 28 days. The method, then: Blood handling procedures: at each time point indicated in the table, a 6 mL blood sample was drawn into K2-EDTA coated tube. The blood samples were gently inverted a few times for complete mixing with the anticoagulant. The exact time of sample collection was recorded on the eCRF. Within 30 minutes following blood collection, each blood sample was centrifuged at 1500 g for 10 minutes at 4° C. 30 minutes after the centrifugation, the top layer of human plasma was transferred into 2 pre-labelled polypropylene tubes, containing approximately 1500 μL of plasma. Blood cells were not transferred. All sample tubes were clearly and appropriately labelled. Tubes were capped immediately from each time point and the plasma was be frozen in an upright position at approximately −80° C. for storage. Measurement of metabolites: Samples were extracted and split into equal parts for analysis on the LC/MS/MS and Polar LC platforms. Proprietary software was used to match ions to an in-house library of standards for metabolite identification and for metabolite quantitation by peak area integration. A total of 781 metabolites were quantified. Metabolomics is the study of known measurable metabolites in a sample. […] The technique made use of HPLC-MS-MS analysis of plasma samples of subjects administered either placebo or urolithin A to characterise metabolites. 781 plasma metabolites which cover all of the biochemical processes of the body were investigated. […] The grey line in FIG. 8 corresponds to a fold change of 1, i.e. absence of effect. *P<0.05 correspond to a significant effect from D-1 (pre-dose) to D28, calculated after a repeated measures ANOVA. N=9 per group. Values represent the arithmetic mean of the fold changes.

A short description of data set [4]: clinical. To be noted: human, in vivo, po; for AUC(0-t) / Cmax: both sexes. The method, then: Part A: The study was a double-blind, randomized, single ascending doses, study in 24 healthy elderly male and female volunteers. Each subject was randomized for two subsequent doses in three cohorts.
Part A: Single oral dose administration on D1 of each period according to the randomisation. The administration took place around 8:00 am with around 200 mL tap water, in sitting position, and under fasting conditions.
After single dosing: Cmax, tmax, AUC0-t, AUC0-∞, t1/2
as §1, §2, §3
FIG. 1 summarises certain plasma pharmacokinetic parameters of urolithin A following single dose oral administration at 250 mg, 500 mg, and 2000 mg urolithin A dosages.

Data set [5] deals with mitochondrial gene sets in vastus lateralis muscle. Description: Microarray / Gene Set Enrichment Analysis of gene expression in skeletal muscle biopsies after 28 days dosing. The data set is classed as in vivo, human. To be noted: 500 mg/day for 28 days vs placebo group. The method, then:
Muscle biopsies were collected before the meal from the vastus lateralis muscle of the right leg in order to perform ex vivo measurements.
Muscle biopsies were collected on Day −1 and Day 28 at pre-dose under fasted state using the Bergstrom biopsy needle technique. The minimal amount of each muscle tissue sample was approximately […]. One third of the tissue was used for gene expression (≈50 mg), and was further divided into two equal portions: one portion for RNA analysis (≈25 mg) and one portion for DNA analysis (≈25 mg), both in a Safe-lock Tubes 2.0 ml, Eppendorf (part no. 0030.120.094). Muscle tissue was snap frozen using liquid nitrogen immediately after collection and further, long term storage will be in a −80° C. freezer. The mRNA was analysed by qPCR. Quantification of mtDNA over nuclear DNA provided another measure of mitochondrial abundance. The shipment was done in dry ice by specialized carrier. Temperatures were monitored using data logger during all transport.
Gene expression on available remaining muscle tissues samples was performed by microarrays.
Microarray analysis was carried out on skeletal muscle biopsies of human subjects administered urolithin A or placebo daily for 28 days. Approximately 30,000 gene transcripts were quantified by microarray in muscle biopsies and compared (day 28 vs. day −1). Gene Set Enrichment Analysis was conducted on 6166 gene sets. […]

Data set [6] has as its system myostatin/follistatin ratio. Description: ELISA of plasma muscle function markers, day 28 vs day -1. It is filed as in vivo, human. Conditions: 500 mg/day for 28 days, day 28 vs day -1, compared with placebo. On the procedure:
Blood handling procedures: at each time point indicated in the table, a 6 mL blood sample was drawn into K2-EDTA coated tube. The blood samples were gently inverted a few times for complete mixing with the anticoagulant. The exact time of sample collection was recorded on the eCRF. Within 30 minutes following blood collection, each blood sample was centrifuged at 1500 g for 10 minutes at 4° C. 30 minutes after the centrifugation, the top layer of human plasma was transferred into 2 pre-labelled polypropylene tubes, containing approximately 1500 μL of plasma. Blood cells were not transferred. All sample tubes were clearly and appropriately labelled. Tubes were capped immediately from each time point and the plasma was be frozen in an upright position at approximately −80° C. for storage. Measurement of markers of muscle function: Markers of muscle function, including myostatin and follistatin, were measured using an ELISA based method. Every sample was analysed in technical duplicates together with a standard curve made with each isolated analyte. The amount of each marker was expressed as an absolute concentration in plasma (pg to μg/ml of plasma, depending on the analyte). Analysis of the levels of muscle biomarkers myostatin and follistatin, which are found in plasma of human subjects, was carried out using ELISA.

“Also recorded” adds a separate entry of the source.

As for `O=c1oc2cc(O)ccc2c2ccc(O)cc12` [Urolithin A], in data set [1], the “steady state levels after end of the 4-week administration (Day 31 and Day 32)” value is “gradually declined”. In the data set “clinical [2]” (both sexes, 500 mg), this molecule displayed an AUC of 10.7 ng·h/mL and a Cmax of 1.25 ng/mL. Moreover, the “pharmacokinetic profile over the 28 day period (plasma concentrations 24 h after previous dose, days 7, 14, 28, 29)” value in the data set “clinical [2]” is on record as “stable”. The plasma carnitine levels entry in data set [3] is given as “did not change”. Besides, in data set [3] (day -1 to day 28, N=9), the “change in plasma acylcarnitines, short chain up to long chain (fold change)” value was “overall decrease; also recorded: significant impact”; the “change in plasma pyruvate, lactate, acetoacetate, 3-hydroxyoctanoate and glucose (fold change)” value was “no significant change”. In the data set “clinical [4]” (500 mg), this molecule gave an AUC(0-t) of 13.3 ng·h/mL and a Cmax of 1.24 ng/mL. Besides, in “clinical [4]” (2000 mg), the AUC(0-t) was 12.4 ng·h/mL and the Cmax is 1.04 ng/mL. In addition, the “dose-normalised plasma Cmax and AUC0-36 h (plasma levels per mg dosed)” value in the data set “clinical [4]” is “higher plasma levels of urolithin A were observed per mg dosed”. Moreover, the “enrichment in GO_MITOCHONDRION genes expression” value in data set [5] is “significant”. Further, the “change in plasma myostatin/follistatin ratio” value in data set [6] is given as “significantly lower; also recorded: significant decrease”.

Broadly, the AUC is the area under the concentration-time curve, a measure of exposure. By Cmax is commonly meant the peak of the concentration-time curve. As usually defined, the AUC(0-t) is the area under the concentration-time curve up to a stated or last time point. A lower AUC(0-t) goes with low exposure.
